Like-named read-outs stand apart in the source and are kept apart here. No end group written: not given here. *: point of attachment. Biotin = O=C1N[C@H]2[C@H](CS[C@H]2CCCCC(=O)*)N1
Columns and labels:
I-A^g7-negative L-cells = settings: peptide 1.6 μM-50 μM, 3 hours at 37° C., pH 6
Method: FIG. 13 is a binding curve showing I-A^g7-positive L-cell binding to titrated amounts of B-1040-63 peptide (1.6 μM-50 μM).

I-A^g7 = experiment: Direct binding of biotinylated peptide to L-cells transfected with I-A^g7 (flow cytometry); design: species or system murine; settings: 3 hours at 37° C., pH 6; streptavidin-PE detection
Sequence of I-A^g7 (as listed by the source): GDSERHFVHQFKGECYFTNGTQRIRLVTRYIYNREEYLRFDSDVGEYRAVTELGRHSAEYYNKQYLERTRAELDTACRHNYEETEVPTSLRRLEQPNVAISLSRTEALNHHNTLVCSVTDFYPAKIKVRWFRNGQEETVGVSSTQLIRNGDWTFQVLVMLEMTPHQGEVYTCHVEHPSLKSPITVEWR
Sequence of I-A^g7 (P04228 24-256): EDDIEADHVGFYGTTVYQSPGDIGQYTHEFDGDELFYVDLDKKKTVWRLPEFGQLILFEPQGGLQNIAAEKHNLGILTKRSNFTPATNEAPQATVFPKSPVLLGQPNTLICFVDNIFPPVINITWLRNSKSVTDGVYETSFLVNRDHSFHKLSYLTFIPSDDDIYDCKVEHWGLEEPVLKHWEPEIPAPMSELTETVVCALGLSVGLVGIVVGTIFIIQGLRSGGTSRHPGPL

**Q.** How did the “binding to untransfected (I-A^g7-negative) L cells” value (I-A^g7-negative L-cells) turn out when Biotin-RTRPLWVRME [Mut B-1040-63] was run?
**A.** does not bind

**Q.** What about the “binding to untransfected (I-A^g7-negative) L cells” value (I-A^g7-negative L-cells; listed as B-104-63) of the same substance?
**A.** does not occur

**Q.** And the “binding to L cells transfected with IA^g7” value (I-A^g7)?
**A.** bind specifically

Source: patent US20020165149A1, “Mutated class II major histocompatibility proteins” (priority 2000, published 2002)
